According to the supplement of paper PMC8882468:
± gives the standard deviation of the averaged measurements.

How the values were obtained:
Experiment in all cases: CTG-3D luminescence at 96 h relative to day-0 seeding control (ratio to day 0); higher = more growth / less cytotoxicity; PDxO 3D drug screen, 96 h, CTG-3D normalised to day-0 seeding control.
[1] = tested on: HCI-017.E2 (organoid from an ER-positive breast cancer xenograft)
[2] = tested on: HCI-002 (organoid from a triple-negative breast cancer xenograft)
[3] = tested on: HCI-023 (organoid from a triple-negative breast cancer xenograft)
[4] = tested on: HCI-001 (organoid from a triple-negative breast cancer xenograft)
[5] = tested on: MDA-MB-231

CCN1CCN(Cc2ccc(Nc3ncc(F)c(-c4cc(F)c5nc(C)n(C(C)C)c5c4)n3)nc2)CC1 [abemaciclib]
CTG-3D luminescence at 96 h
Conditions	12.5 pM	0.00025 µM	0.005 µM	0.1 µM	1 µM	10 µM	100 µM	625 fM
[1]	1.858 ± 0.013	1.97 ± 0.15	2.083 ± 0.014	2.11 ± 0.035	2.01 ± 0.16	1.5 ± 0.023	0.00884 ± 0.0013	2.33 ± 0.15
[5]	4.61 ± 1.4	4.47 ± 1.4	4.69 ± 1.5	4.48 ± 1.1	4.55 ± 1.2	3.73 ± 1.6	0.0487 ± 0.012	4.67 ± 1.3

CTG-3D luminescence at 96 h
Conditions	12.5 pM	0.00025 µM	0.005 µM	0.1 µM	1 µM	10 µM	100 µM	625 fM
[1], days in culture: 85	2.84	2.45	2.5	2.52	2.03	1.81	0.0118	3.16
[2], days in culture: 62	2.66	2.58	3.14	1.73	1.79	0.212	0.0177	2.98
[2], days in culture: 82	3.15	2.81	2.24	1.98	1.8	0.0326	0.0147	2.83
[2], days in culture: 91	3.78	3.22	2.89	1.68	2.17	1.95	0.0268	3.9
[2], days in culture: 191	2.72	2.89	3.01	1.89	2.34	0.748	0.018	2.57
[2], days in culture: 209	2.24	2.35	2.4	1.36	1.49	0.0253	0.014	2.36
[2], days in culture: 227	5.48	5.17	4.76	2.91	3.24	0.0659	0.0285	5.64
[3], days in culture: 111	1.62	1.22	1.3	1.11	0.658	0.377	0.00981	1.51
[3], days in culture: 128	1.77 ± 0.48	1.494 ± 0.0079	1.47 ± 0.046	1.52 ± 0.47	0.984 ± 0.17	1.15 ± 0.29	0.0139 ± 0.0041	1.84 ± 0.45
[4], days in culture: 240	1.34	0.584	0.704	0.897	1.37	0.799	0.012	1.47
[4], days in culture: 260	2.51	1.22	1.6	1.75	1.37	1.23	0.00996	2.02
[4], days in culture: 269	1.53	1.73	1.69	1.38	1.17	0.68	0.0115	1.67
[4], days in culture: 327	1.46	1.41	1.87	1.58	1.36	1.12	0.0169	1.75
[4], days in culture: 346	1.39	1.37	1.18	1.14	1.17	1.35	0.0179	1.19
[4], days in culture: 364	1.39	1.1	1.38	0.914	0.909	1.22	0.0124	1.72

CN(Cc1cnc2nc(N)nc(N)c2n1)c1ccc(C(=O)N[C@@H](CCC(=O)O)C(=O)O)cc1 [methotrexate]
CTG-3D luminescence at 96 h
Conditions	12.5 pM	0.00025 µM	0.005 µM	0.1 µM	1 µM	10 µM	100 µM	625 fM
[1]	2.07 ± 0.41	2.19 ± 0.051	2.14 ± 0.3	2 ± 0.15	2.22 ± 0.17	2.19 ± 0.089	2.15 ± 0.42	2.05 ± 0.14
[5]	4.34 ± 1.4	4.29 ± 1.5	4.44 ± 1.4	4.37 ± 1.3	2.63 ± 0.79	2.29 ± 0.75	2.66 ± 1.1	4.36 ± 1.3

CTG-3D luminescence at 96 h
Conditions	12.5 pM	0.00025 µM	0.005 µM	0.1 µM	1 µM	10 µM	100 µM	625 fM
[1], days in culture: 85	2.97	2.49	2.7	2.26	2.43	2.05	2.13	2.34
[2], days in culture: 62	2.96	2.69	2.51	2.07	1.87	1.98	1.41	3
[2], days in culture: 82	2.95	3.08	2.15	2.74	2.21	2.01	1.45	2.71
[2], days in culture: 91	3.87	3.77	3.65	2.64	2.19	2.11	1.68	4.28
[2], days in culture: 191	2.61	2.61	2.29	1.61	1.57	1.54	1.33	2.53
[2], days in culture: 209	2.46	2.21	2.31	1.84	1.59	1.28	1.33	2.57
[2], days in culture: 227	6.13	6.3	5.89	6.23	5.35	5.18	4.27	6.94
[3], days in culture: 111	1.59	1.42	1.18	1.07	0.83	0.957	0.655	1.51
[3], days in culture: 128	1.68 ± 0.15	1.51 ± 0.073	1.5 ± 0.16	1.84 ± 0.094	1.37 ± 0.12	1.77 ± 0.14	1.22 ± 0.16	1.62 ± 0.16
[4], days in culture: 240	2.01	1.12	1.13	1.01	1.26	1.06	1.21	1.72
[4], days in culture: 260	2.08	0.984	2.27	1.47	1.43	1.62	0.88	1.26
[4], days in culture: 269	1.68	1.46	1.53	1.86	1.46	2.16	2.3	1.5
[4], days in culture: 327	1.75	1.62	2.05	1.14	0.877	0.985	1.35	1.69
[4], days in culture: 346	1.53	1.34	1.28	1.02	0.965	1.41	1.19	1.2
[4], days in culture: 364	1.58	1.17	1.45	0.891	0.633	1.11	0.716	1.64
